Earlier results on 15 compounds are cited in PubChem BioAssay AID1259410 (Chemical Carcinogenesis Research Information System (CCRIS), 2018).

Molecules are shown by their SMILES.

This data set has as its system rodent tumor promotion studies, tumor incidence. The data set can be described thus: CCRIS tumor promotion studies. From the text:
The CCRIS database contains chemical records with carcinogenicity, mutagenicity, tumor promotion, and tumor inhibition test results. It was developed by the National Cancer Institute (NCI). Data are derived from studies cited in primary journals, current awareness tools, NCI reports, and other sources. Test results have been reviewed by experts in carcinogenesis and mutagenesis.
CCRIS provides historical information from the years 1985 - 2011. It is no longer updated.
This is an archive assay for CCRIS tumor promotion studies.

[1] abbreviates: Carcinogen: 7,12-DIMETHYLBENZ(A)ANTHRACENE, Doses [Carcinogen]: TOP, Route [Carcinogen]: DERMAL, Route [Promoter]: DERMAL, Species: MOUSE, Strain/Sex: FEMALE.

Turning to `C[C@H](N)[C@H](O)c1cccc(O)c1`, the outcome (Carcinogen: N-METHYL-N'-NITRO-N-NITROSOGUANADINE, 70-25-7, Doses [Carcinogen]: 25 UG/ML IN DRINKING WATER FOR 20 WK, Doses [Promoter]: 0, 5 MG/KG BW IN OLIVE OIL 1/2 D BEGINNING POST CARCINOGEN TREATMENT (STUDY DURATION: 52 WK), Route [Carcinogen]: ORAL, Route [Promoter]: SUBCUTANEOUS, Species: RAT, Strain/Sex: WISTAR/MALE) is given as “stomach: adenocarcinoma”.

For the compound `CC(C)=CCC/C(C)=C/CC/C(C)=C/CC/C=C(\C)CC/C=C(\C)CCC=C(C)C`, the outcome (Carcinogen: 7,12-DIMETHYLBENZ(A)ANTHRACENE, Doses [Carcinogen]: TOP, Route [Carcinogen]: DERMAL, Route [Promoter]: DERMAL, Species: MOUSE, Strain/Sex: MALE) is on record as “integumentary system (skin)”. Turning to `CC1=C2C(=CO[C@H](C)[C@H]2C)C(=O)C(C(=O)O)=C1O`, the outcome was “kidney: tumor” (Carcinogen: OCHRATOXIN A, 303-47-9, Doses [Carcinogen]: 0.25 ML OF A 50 PPM SOLUTION 2/WK FOR 20 WK, Doses [Promoter]: 0, 0.25 ML OF 50 PPM SOLUTION 2/WK FOR 20 WK ADMINISTERED SIMULTANEOUSLY WITH CARCINOGEN TREATMENT (STUDY DURATION: 20 W, Route [Carcinogen]: GAVAGE, Route [Promoter]: GAVAGE, Species: MOUSE, Strain/Sex: ALBINO/MALE,FEMALE) and “kidney: tumor” (Carcinogen: OCHRATOXIN A, 303-47-9, Doses [Carcinogen]: 0.25 ML OF A 50 PPM SOLUTION 2/WK FOR 20 WK, Doses [Promoter]: 0, 0.25 ML OF A 50 PPM SOLUTION ADMINISTERED SIMULTANEOUSLY WITH CARCINOGEN DOSE 2/WK FOR 20 WK (STUDY DURATION: 20 WK), Route [Carcinogen]: GAVAGE, Route [Promoter]: GAVAGE, Species: MOUSE, Strain/Sex: SWISS/MALE,FEMALE).

Regarding `NC(CO)C(=O)O` (stereo not drawn), the outcome was “kidney: dark cell tumor, clear cell tumor, adenocarcinoma” (Carcinogen: N-ETHYL-N-HYDROXYETHYLNITROSAMINE, 13147-25-6, Doses [Carcinogen]: 500 PPM IN DIET FOR 2 WK, Doses [Promoter]: 0, 100 MG/100 G BW IN 2 ML 5% SALINE GIVEN 1/2 WK FOR 3 DOSES BEGINNING 1 WK POST CARCINOGEN (STUDY DURATION: 32 WK), Route [Carcinogen]: ORAL, Route [Promoter]: SUBCUTANEOUS, Species: RAT, Strain/Sex: WISTAR/MALE) and “kidney: dark cell tumor, clear cell tumor, adenocarcinoma” (Carcinogen: N-ETHYL-N-HYDROXYETHYLNITROSAMINE, 13147-25-6, Doses [Carcinogen]: 1000 PPM IN DIET FOR 2 WK, Doses [Promoter]: 0, 100 MG/100 G BW IN 2 ML 5% SALINE GIVEN 1/2 WK FOR 3 DOSES BEGINNING 1 WK POST CARCINOGEN (STUDY DURATION: 32 WK), Route [Carcinogen]: ORAL, Route [Promoter]: SUBCUTANEOUS, Species: RAT, Strain/Sex: WISTAR/MALE).

For the compound `[O-][Cl+3]([O-])([O-])O`, the outcome by setting is: (Carcinogen: N-bis(2-hydroxypropyl)nitrosamine, 53609-64-6, Doses [Carcinogen]: 0.08 and 0.2% in drinking water for 4 wks at 7-10 wks of age, study duration to 39 wk of age, Doses [Promoter]: In utero (0.1% in diet of dams) and then in drinking water of weaned offspring for 2 wk. Dimethylbenz[a]anthracene, 57-9, Route [Carcinogen]: Oral, Route [Promoter]: In utero and in drinking water, Species: Rat, Strain/Sex: F344/Female (23, 16/group)) “thyroid: no increase in tumors even though increased follicular cell hyperplasia”; (Carcinogen: N-bis(2-hydroxypropyl)nitrosamine, 53609-64-6, Doses [Carcinogen]: 0.08 and 0.2% in drinking water for 4 wks at 7-10 wks of age, study duration to 39 wk of age, Doses [Promoter]: In utero (0.1% in diet of dams) and then in drinking water of weaned offspring for 2 wk, Route [Carcinogen]: Oral, Route [Promoter]: In utero and in drinking water, Species: Rat, Strain/Sex: F344/Male (12-15/group)) “none found”.

`O=NN1CCCC1`: for the setting “Carcinogen: N-BUTYL-N-4(HYDROXYBUTYL)NITROSAMINE, 3817-11-6, Doses [Carcinogen]: 0.05% IN DRINKING WATER FOR 2 WK, Doses [Promoter]: 0, 0.02% IN DIET STARTING POST CARCINOGEN AND CONTINUING FOR 22 WK, LEFT URETER LIGATED 8 D POST CARCINOGEN (STUDY DURAT, Route [Carcinogen]: ORAL, Route [Promoter]: ORAL, Species: RAT, Strain/Sex: F344/MALE”, the outcome is on record as “bladder: papilloma”. For `CC(N)Cc1ccccc1` (stereo not drawn), the outcome (Carcinogen: BITTNER MAMMARY TUMOR VIRUS, Doses [Promoter]: 0, 0.4 MG/KG/D IN 1 ML/KG OF 0.9% SALINE FOR DURATION OF STUDY (STUDY DURATION: 730 D), Route [Promoter]: SUBCUTANEOUS, Species: MOUSE, Strain/Sex: C3H/FEMALE) is listed as “mammary gland: tumor”. On to `OC[C@H]1O[C@@H]2O[C@H]3[C@H](O)[C@@H](O)[C@@H](O[C@H]4[C@H](O)[C@@H](O)[C@@H](O[C@H]5[C@H](O)[C@@H](O)[C@@H](O[C@H]6[C@H](O)[C@@H](O)[C@@H](O[C@H]7[C@H](O)[C@@H](O)[C@@H](O[C@H]8[C@H](O)[C@@H](O)[C@@H](O[C@H]1[C@H](O)[C@H]2O)O[C@@H]8CO)O[C@@H]7CO)O[C@@H]6CO)O[C@@H]5CO)O[C@@H]4CO)O[C@@H]3CO`, for which the outcome (Carcinogen: N-ETHYL-N-(2-HYDROXYETHYL)NITROSAMINE, Doses [Carcinogen]: 500, 1000 PPM IN DIET FOR TWO WK, Doses [Promoter]: 450 MG/KG 1/D FOR 7 D AFTER INITIATION FOR 2 WK, Route [Carcinogen]: ORAL, Route [Promoter]: SUBCUTANEOUS, Species: RAT, Strain/Sex: WISTAR/MALE) is given as “kidney: tubular cell tumor”.

Take `Oc1ccc2c(c1)CCCC2`: the outcome under setting [1] is listed as “integumentary system (skin)”. Take `CSCC[C@H](NC(=O)[C@H](CC(C)C)NC(=O)CNC(=O)[C@H](Cc1ccccc1)NC(=O)[C@H](Cc1ccccc1)NC(=O)[C@H](CCC(N)=O)NC(=O)[C@H](CCC(N)=O)NC(=O)[C@@H]1CCCN1C(=O)[C@H](CCCCN)NC(=O)[C@@H]1CCCN1C(=O)[C@@H](N)CCCN=C(N)N)C(N)=O`: the outcome (Carcinogen: N-METHYL-N'-NITRO-N-NITROSOGUANIDINE, 70-25-7, Doses [Carcinogen]: 50 UG/ML IN DRINKING WATER FOR 25 WK, Doses [Promoter]: 0, 12 UG/KG BW 1/2 D FOR 26 WK BEGINNING POST CARCINOGEN TREATMENT (STUDY DURATION: 52 WK), Route [Carcinogen]: ORAL, Route [Promoter]: SUBCUTANEOUS, Species: RAT, Strain/Sex: WISTAR/MALE, FEMALE) was “stomach: tumor”.

For `N[C@@H](Cc1c[nH]c2ccccc12)C(=O)O`, the outcome (Carcinogen: N-(4-(5-NITRO-2-FURYL)-2-THIAZOLYL)FORMAMIDE, Doses [Carcinogen]: DIET, Doses [Promoter]: IN DIET, Route [Carcinogen]: ORAL, Route [Promoter]: ORAL, Species: MOUSE, Strain/Sex: FEMALE) is listed as “urinary bladder”. Regarding `O=C(O)CCC(=O)O`, the outcome (Carcinogen: N-BUTYL-N-(4-HYDROXYBUTYL)NITROSAMINE, 3817-11-6, Doses [Carcinogen]: 0.05% IN DRINKING WATER FOR 4 WK, Doses [Promoter]: 0, 5% IN BASAL DIET BEGINNING POST CARCINOGEN TREATMENT AND CONTINUING FOR 32 WK (STUDY DURATION: 36 WK), Route [Carcinogen]: ORAL, Route [Promoter]: ORAL, Species: RAT, Strain/Sex: F344/MALE) is listed as “urinary bladder: papilloma, carcinoma”. As to `C1CCCCC1`, for the setting “Carcinogen: DIMETHYLBENZ[A]ANTHRACENE, 57-97-6, Doses [Carcinogen]: 0.2 UMOL (51.2 UG) IN O.2 ML ACETONE ONCE, Doses [Promoter]: 0, 100 µL 3/WK ADMINISTERED 7 D POST CARCINOGEN DOSE AND CONTINUING FOR DURATION OF STUDY (STUDY DURATION: 1 YR), Route [Carcinogen]: DERMAL, Route [Promoter]: DERMAL, Species: MOUSE, Strain/Sex: SWISS/FEMALE”, the outcome is recorded as “skin: tumor, squamous cell papilloma, keratoacanthoma”.

`CCCCCC1(CCCCCC(=O)OC23C(OC(C)=O)C(C)C4(O)C(C=C(CO)CC5(O)C(=O)C(C)=CC54)C2C3(C)C)OCC(C)(C)N1[O]` (stereo not drawn): the outcome (Carcinogen: 7,12-DIMETHYLBENZ[A]ANTHRACENE, 57-97-6, Doses [Carcinogen]: 100 NMOL ONCE, Doses [Promoter]: 0, 20 NMOL 2/WK FOR 24 WK BEGINNING 1 WK POST CARCINOGEN DOSE (STUDY DURATION: 25 WK), Route [Carcinogen]: DERMAL, Route [Promoter]: DERMAL, Species: MOUSE, Strain/Sex: NMRI/FEMALE) is “skin: tumor”.

`Oc1ccc(Cl)cc1Cl`: the outcome under setting [1] is recorded as “integumentary system (skin)”.
